Reference: patent US8067620B2, “Dispiro 1,2,4-trioxolane antimalarials” (Medicines for Malaria Venture MMV, priority 2005, dated 2011)
Values after ≈ are worked out from the molar mass of the structure shown. Like-named read-outs stand apart in the source and are kept apart here.

Key:
[1] = system: P. berghei; assay: Prophylactic activity against P. berghei in vivo (mice dosed before infection); conditions: for Cures 24 h prior to infection (30 mg/kg) / Activity (%) 24 h prior to infection (30 mg/kg): single 30 mg/kg oral dose 24 h prior to infection; for Activity (%) 24 h prior to infection (30 mg/kg) / Activity (%) 48 h prior to infection (100 mg/kg): parasitemia day 3 post-infection; for Cures 48 h prior to infection (100 mg/kg) / Activity (%) 48 h prior to infection (100 mg/kg): single 100 mg/kg oral dose 48 h prior to infection; for Activity (%) 72 h prior to infection (100 mg/kg) / Cures 72 h prior to infection (100 mg/kg): single 100 mg/kg oral dose 72 h prior to infection
Protocol: All groups (n=5 mice per group) including an untreated control group, were infected at the same time and parasitemia was determined for each animal on day 3 post-infection and compared with the level of parasitemia in control animals.

[2] = system: chloroquine-sensitive NF54 strain of Plasmodium falciparum; assay: Activity against P. falciparum NF54 strain in vitro; format: cell-based
From the text: (§1) Activity of 1,2,4-trioxolanes against P. falciparum in vitro.

[3] = system: chloroquine-resistant K1 strain of Plasmodium falciparum; assay: Activity against P. falciparum K1 strain in vitro; format: cell-based
From the text: as §1

[4] = system: ANKA strain of P. berghei; assay: Single dose in vivo screen in P. berghei-infected NMRI mice; conditions: for Survival (days) 30 mg/kg SSV po / Activity (%) 30 mg/kg SSV po: single 30 mg/kg po dose in SSV one day post-infection; for Activity (%) 30 mg/kg SSV po: percent reduction in parasitemia on day three post-infection; for Cures 30 mg/kg SSV po: single 30 mg/kg po dose in SSV, cure = survival to day 30 post-infection, groups of five mice
Protocol: Activity of 1,2,4-trioxolanes against P. berghei in vivo. In the single dose in vivo screen, NMRI mice infected with the ANKA strain of P. berghei (groups of five mice) were treated one day post-infection with trioxolanes dissolved or suspended in standard suspending vehicle (SSV). The SSV consists of either 0.5% w/v carboxymethyl cellulose, 0.5% v/v benzyl alcohol, 0.4% v/v Tween 80, and 0.9% w/v sodium chloride in water or 0.5% hydroxypropylmethylcellulose 0.4% v/s Tween 80, and 0.5% v/v benzyl alcohol in water. […] Antimalarial activity was measured by percent reduction in parasitemia on day three post-infection and survival times compared to an untreated control group. Survival to day 30 post-infection is considered to be a cure in this model.

[5] = system: Embryonic red blood cells (RBCs); assay: Rat whole embryo culture (WEC) model, embryotoxicity
From the text: Embryonic red blood cells (RBCs) were the primary target leading to anemia and subsequent hypoxia in embryonic tissues.
Longo, M.; Zanoncelli, S.; Manera, D.; Brughera, M.; Colombo, P.; Lansen J.; Mazué, G.; Gomes, M.; Taylor W. R. J.; Olliaro, P. Effects of the Antimalarial Drug Dihydroartemisinin (DHA) on Rat Embryos In Vitro. Repro. Tox. 2006, 21, 83-93.

[6] = Blood stability studies in freshly collected rat blood; format: in vitro ADME; set-up: unit not given here
Protocol: Blood stability studies: Compounds were incubated at 37° C. in freshly collected rat blood. At selected time points, duplicate aliquots of the whole blood were sampled, centrifuged and the plasma assayed for parent compound by LC-MS.

[7] = Pharmacokinetic studies in rats (oral); format: in vivo, rat; conditions: oral 10 mg/kg; for Oral Bioavailability at 10 mg/kg (%): relative to an IV dose
Protocol: Pharmacokinetic studies in rats: Compounds were administered orally to rats (n=2) at a dose of 10 mg/kg in a suspension formulation containing hydroxypropylmethyl cellulose, Tween 80, benzyl alcohol, and water. […] Oral bioavailability for each compound was calculated relative to an IV dose for each compound in a suitable vehicle.

[8] = P. falciparum NF54, in vitro, second value of K1/NF54 cell, read-out: IC50 (ng/ml) NF54
[9] = P. falciparum K1, in vitro, first value of K1/NF54 cell, read-out: IC50 (ng/ml) K1

| SMILES | Cures 24 h prior to infection (30 mg/kg) ([1]; n=5 mice) | Activity (%) 24 h prior to infection (30 mg/kg) [1] [%] | Cures 48 h prior to infection (100 mg/kg) ([1]; n=5 mice) | Activity (%) 48 h prior to infection (100 mg/kg) [1] [%] | Activity (%) 72 h prior to infection (100 mg/kg) [1] [%] | Cures 72 h prior to infection (100 mg/kg) ([1]; n=5 mice) | IC50 [2, 8] [ng/mL] | IC50 [3, 9] [ng/mL] | Survival (days) 30 mg/kg SSV po [4] [days] | Activity (%) 30 mg/kg SSV po [4] [%] | Cures 30 mg/kg SSV po [4] | NOAEL for embryonic RBCs [5] [µg/mL] | Stability in Rat Blood (t1/2) at 37° C. [6] | other results |
| --- | --- | --- | --- | --- | --- | --- | --- | --- | --- | --- | --- | --- | --- | --- |
| OC(c1cc(C(F)(F)F)nc2c(C(F)(F)F)cccc12)C1CCCCN1 (stereo not drawn) [MQ, mefloquine, reference compound] | 3/5 | >99.9 | 3/5 | 99.9 | >99.9 | 0/5 | 5.8 (≈ 0.0153 µM) | 3 (≈ 0.00793 µM) | 21.8 | 99.6 | 0/5 | – | – | – |
| CS(=O)(=O)O.NC1CCC(Oc2ccc(C3CCC4(CC3)OOC3(O4)C4CC5CC(C4)CC3C5)cc2)CC1 (stereo not drawn) [OZ493] | 3/5 | >99.9 | 5/5 | 99 | 99.9 | 5/5 | – | – | – | – | – | 1 | >17 | Activity (%) 96 h prior to infection (100 mg/kg) ([1]; single 100 mg/kg oral dose 96 h prior to infection): 99.5%; Cures 96 h prior to infection (100 mg/kg) ([1]; single 100 mg/kg oral dose 96 h prior to infection, n=5 mice): 3/5; In Vivo Oral t1/2 at 10 mg/kg ([7]; 10 mg/kg): 7.7 h; Oral Bioavailability at 10 mg/kg (%) ([7]; 10 mg/kg): 51% |
| CC(C)(N)CNC(=O)C[C@H]1CC[C@]2(CC1)OO[C@]1(O2)C2CC3CC(C2)CC1C3 [OZ277, reference compound] | 0/5 | 13 | 0/5 | 0 | – | – | – | – | 8.0 | 99.7 | 0/5 | 0.2 | 0.8 | In Vivo Oral t1/2 at 10 mg/kg [7]: 1.6 h; Oral Bioavailability at 10 mg/kg (%) [7]: 19% |
| CO[C@H]1O[C@@H]2O[C@@]3(C)CC[C@H]4[C@H](C)CC[C@@H]([C@H]1C)[C@@]24OO3 [AM, artemether, reference compound] | – | – | – | – | – | – | 1.2 (≈ 0.00402 µM) | 0.74 (≈ 0.00248 µM) | 9.0 | 99.7 | 0/5 | – | – | – |
| CCN(CC)CCCC(C)Nc1ccnc2cc(Cl)ccc12 (stereo not drawn) [CQ, chloroquine, reference compound] | 0/5 | – | 0/5 | – | – | – | – | – | 9.6 | – | 0/5 | – | – | IC50 ([2]; K1 / NF54, read-out: IC50 (ng/ml) NF54): 5.1 ng/mL (≈ 0.0159 µM); IC50 ([3]; K1 / NF54, read-out: IC50 (ng/ml) K1): 62 ng/mL (≈ 0.194 µM) |
